Reference: a compilation of properties of binary mixtures (doi:10.1016/j.fluid.2020.112621)

Experiment: xn = mol fraction of the nth substance listed
Conditions: 101 kPa

CC(=O)[O-].CCCC[NH2+]CCO + CCCC[n+]1ccn(C)c1.O=S(=O)([N-]S(=O)(=O)C(F)(F)F)C(F)(F)F
viscosity [mPa·s]
Conditions | x1 = 0.1012 | x1 = 0.2257 | x1 = 0.3002 | x1 = 0.423 | x1 = 0.4998 | x1 = 0.6018 | x1 = 0.6987 | x1 = 0.8008 | x1 = 0.901 | x1 = 1
278.15 K | – | – | – | – | – | – | – | – | – | 6138
283.15 K | – | 183.1 | 226.7 | 353 | 481 | 745 | 1144.5 | – | 2806 | –
288.15 K | 96.2 | 134.7 | – | 248.3 | 331.5 | 499 | 745 | – | 1734.8 | 2230
293.15 K | 74.29 | 101.5 | 121.9 | 179.1 | 234.7 | 344 | 501 | 765 | 1109.3 | 1412.3
298.15 K | 58.45 | – | 92.4 | 132.2 | 170.1 | 243.1 | 346 | – | – | –
303.15 K | 46.77 | 61.09 | 71.45 | 99.7 | – | 176 | 244.7 | – | 495 | 617
308.15 K | 38.01 | 48.63 | – | 76.6 | 95.3 | 130.1 | 177.2 | 251.7 | 343 | –
313.15 K | 31.32 | 39.3 | 44.89 | 59.83 | – | 98.1 | – | – | – | –
318.15 K | 26.13 | – | 36.38 | 47.48 | 57.42 | 75.3 | – | 134.2 | – | 212.7
323.15 K | 22.05 | 26.72 | 29.87 | 38.23 | 45.61 | 58.7 | – | 100.8 | 130.4 | 155.3
328.15 K | 18.81 | – | 24.83 | 31.18 | 36.74 | – | 58.7 | 77 | – | 115.3
333.15 K | 16.19 | 19 | 20.86 | 25.75 | 29.98 | 37.29 | 46.37 | 59.7 | 74.8 | 87
338.15 K | 14.06 | 16.27 | 17.7 | 21.49 | 24.74 | 30.3 | – | 47.02 | 58 | 66.7
343.15 K | 12.31 | – | 15.16 | 18.12 | – | 24.92 | 30.07 | 37.51 | – | –
348.15 K | 10.85 | 12.23 | 13.09 | – | 17.4 | 20.7 | 24.65 | 30.28 | 36.31 | 40.87
353.15 K | 9.63 | 10.72 | 11.4 | 13.24 | 14.79 | 17.37 | 20.42 | 24.73 | – | –
358.15 K | 8.6 | 9.47 | – | – | – | 14.71 | 17.08 | 20.41 | 23.84 | 26.29
363.15 K | 7.73 | 8.41 | 8.82 | – | 10.96 | 12.57 | 14.42 | 17 | 19.63 | –
368.15 K | 6.98 | 7.51 | 7.83 | 8.76 | 9.54 | 10.81 | 12.27 | – | 16.31 | –
373.15 K | 6.33 | 6.75 | – | – | – | 9.37 | 10.52 | 12.11 | 13.67 | –
